The source of these data is US20020106348A1, “Cancer therapeutics involving the administration of 2-methoxyestradiol and an agent that increases intracellular superoxide anion” (priority 2000, published 2002).

One data set has as its system HL-60. In words: Apoptosis / nucleosomal DNA fragmentation in HL-60 cells. In kind it is cell-based, human. To be noted: for effect on 2-ME-induced apoptosis: HL-60, 1 μM 2-ME plus antioxidant; for DNA fragmentation (apoptosis) in HL-60 cells: estrogen derivatives, FIG. 20.
Data set [1] deals with CLL cells. To be noted: for protection from toxic effect of 2-ME: antioxidant added to 2-ME-treated CLL cells.
Data set [2] has as its system CLL cells. In words: Cellular O2^- by hydroethidine flow cytometry, CLL cells. The format is cell-based, human. To be noted: addition of NAC to 2-ME-treated CLL cells. A general note: In flow cytometry, cells or beads pass a laser one at a time.
Description: The method using hydroethidine to detect O2^− in tissue sections was adapted for quantitation of intracellular O2^− by flow cytometry analysis. This assay is based on the unique chemical properties of hydroethidine, a weak blue fluorescent dye which is selectively converted by O2^− to ethidium with a bright red fluorescence. The control and drug-treated cells (1.5×10^6/sample) were incubated with hydroethidine (20 ng/ml) for 60 min, washed twice with 3 ml PBS, resuspended in 2 ml PBS, and then analyzed within 1 h by flow cytometry, using the red laser channel.
The conditions of data set [3]: cited from earlier work; for elimination half-life: intravenous.
In data set [4] the test system is leukemia cells from a CML (chronic myelogenous leukemia) patient in relapsed blast crisis. The data set can be described thus: Induction of apoptosis in primary leukemia cells from a CML patient. The settings on record: in vitro. In kind it is cell-based, human.
A further data set has as its system CuZnSOD. In words: Inhibition of CuZnSOD by estrogen derivatives. The format is biochemical. To be noted: FIG. 20.
For the next data set, the system named is HL-60 cells. The data set can be described thus: Cellular O2^- by flow cytometry, HL-60 cells. In kind it is cell-based, human. To be noted: 0.25 μM.
The target in data set [5] is NADH:ubiquinone oxidoreductase; phorbol ester-induced ornithine decarboxylase (ODC). The settings on record: Fang et al, 1998; read-out: IC50 values, NADH:ubiquinone oxidoreductase inhibition / blocking ODC induction; cited from earlier work.
The test system of another data set is c-myc protein. In words: c-myc protein expression in B CLL cells. The settings on record: Rituxan alone. In kind it is cell-based, human.

Structures can show the parent of a compound that is named as a salt. Where two headings read alike, the source gives them in different places.

For the compound `Nc1c(Br)cc(Br)cc1CN[C@H]1CC[C@H](O)CC1` [ambroxol], in the data set with HL-60, the “effect on 2-ME-induced apoptosis” value is 2-ME-induced apoptosis was significantly reduced.

As to `CC(=O)N[C@@H](CS)C(=O)O` [N-acetylcysteine, reference compound], the figures for the “protection from toxic effect of 2-ME” value in the data set on CLL cells [1] and with CLL cells [1] (listed as NAC) were “protective effect” and “protected the cells from the toxic effect of 2-ME”, respectively. Besides, the “effect on 2-ME-induced apoptosis” value with HL-60 is listed as 2-ME-induced apoptosis was significantly reduced. In the data set with CLL cells [2], the “cellular O2^− in 2-ME-treated cells” value is “reduced the accumulation of cellular O2^−”.

Take `COc1cccc2c1C(=O)c1c(O)c3c(c(O)c1C2=O)C[C@@](O)([C@H](C)O)C[C@@H]3O[C@H]1C[C@H](N)[C@H](O)[C@H](C)O1` [daunorubicinol]: in data set [3], the elimination half-life entry is “about 27 hr”.

With `Nc1ccn([C@@H]2O[C@H](CO)[C@@H](O)[C@@H]2O)c(=O)n1` [ara-C, reference compound], the “apoptosis in primary CML cells” value in data set [4] is on record as “resistant”.

Consider Sodium Arsenate [reference compound], for which the “sensitivity to single agent” value is “insensitive to either drug alone” in the data set with CLL cells [1] (2-ME-resistant CLL cells) and “relatively sensitive” in the data set on CLL cells [1] (CLL cells of the two sensitive patients).

In the case of `COc1cc2c(cc1O)CC[C@@H]1[C@@H]2CC[C@]2(C)C(=O)CC[C@@H]12` [2-methoxyestrone], the “DNA fragmentation (apoptosis) in HL-60 cells” value (“DNA fragmentation (apoptosis)” below) with HL-60 is listed as “induced DNA fragmentation”. Moreover, the “inhibition of SOD activity” value in the data set with CuZnSOD is given as “substantially inhibited SOD activity”.

With `C[C@]12CC[C@@H]3c4cc(O)c(O)cc4CC[C@H]3[C@@H]1CC[C@@H]2O` [2-hydroxyestradiol], the “DNA fragmentation (apoptosis)” value in the data set on HL-60 is reported as “induced DNA fragmentation”. The “inhibition of SOD activity” value in the data set on CuZnSOD is recorded as “substantially inhibited SOD activity”.

For the compound `C=C(C)[C@H]1Cc2c(ccc3c2O[C@@H]2COc4cc(OC)c(OC)cc4[C@@H]2C3=O)O1` [rotenone, reference compound], in the data set on HL-60 cells, the “cellular O2^− content” value is recorded as “increase of cellular O2^−”. Moreover, the IC50 in data set [5] is 0.8 to 4 nM.

Regarding “Rituxan: antibody specific for CD20 antigen on B lymphocyte”, the “killing of CLL cells” value in the data set on CLL cells [1] (Rituxan alone, various concentrations) is “did not result in any significant killing”. Besides, the “enhancement of 2-ME activity” value in the data set with CLL cells [1] (cells sensitive or resistant to 2-ME) is “did not significantly enhance the activity of 2-ME”. For the same compound, in the data set with c-myc protein, the c-myc protein expression entry was “increased expression of c-myc protein”.

Regarding `C[C@]12CC[C@@H]3c4ccc(O)cc4CC[C@H]3[C@@H]1CC[C@@H]2O` [17β-estradiol], in the data set on HL-60, the “DNA fragmentation (apoptosis)” value was “little DNA fragmentation”. The “inhibition of SOD activity” value in the data set with CuZnSOD is recorded as “minimal activity against SOD”.

As to `COc1cccc2c1C(=O)c1c(O)c3c(c(O)c1C2=O)C[C@@](O)(C(=O)CO)C[C@@H]3O[C@H]1C[C@H](N)[C@H](O)[C@H](C)O1` [Doxorubicin, 5,12-Naphthacenedione, (8s-cis)-10-[(3-amino-2,3,6-trideoxy-α-L-lyxo-hexopyranosyl)oxy]-7,8,9,10-tetrahydro-6,8,1-trihydroxy-8-(hydroxyacetyl)-1-methoxy-hydrochloride], the elimination half-life result in [3] is recorded as “about 30 hr”.

For `COc1cccc2c1C(=O)c1c(O)c3c(c(O)c1C2=O)C[C@@](O)(C(C)=O)C[C@@H]3O[C@H]1C[C@H](N)[C@H](O)[C@H](C)O1` [Daunorubicin, 5,12-Naphthacenedione, (8S-cis)-8-acetyl-10-[(3-amino-2,3,6-trideoxy-α-L-lyxo-hexanopyranosyl)oxy]-7,8,9,10-tetrahydro-6,8,11-trihydroxy-10-methoxy-, hydrochloride], in data set [3] (in vivo), the “secreted into the bile” value is given as about 40%. Further, the elimination half-life entry in data set [3] was “about 19 hr”.
